The values that follow come from PMC5480602 (Slas Discovery, 2017).

Each structure is given as a SMILES string.

Data set [1] addresses α4β2 nAChR (Homo sapiens, UniProt P17787+P43681). Nature of the data set: cell-based.
For data set [2], the target named is α3β4α5 nAChR (Homo sapiens, UniProt P30532+P30926+P32297). The data set is described as follows: cell-based.
The conditions of data set [3]: cited from earlier work.
For data set [4] the following is noted: read-out: plasma levels (Cmax); in patients; cited from earlier work.
Data set [5] has as its target α3β4 nAChR (Homo sapiens, UniProt P30926+P32297). Nature of the data set: cell-based.
The conditions of data set [6]: cited from earlier work. This is another data set of the same source.

Sequence of α3β4α5 nAChR (P32297 32-505): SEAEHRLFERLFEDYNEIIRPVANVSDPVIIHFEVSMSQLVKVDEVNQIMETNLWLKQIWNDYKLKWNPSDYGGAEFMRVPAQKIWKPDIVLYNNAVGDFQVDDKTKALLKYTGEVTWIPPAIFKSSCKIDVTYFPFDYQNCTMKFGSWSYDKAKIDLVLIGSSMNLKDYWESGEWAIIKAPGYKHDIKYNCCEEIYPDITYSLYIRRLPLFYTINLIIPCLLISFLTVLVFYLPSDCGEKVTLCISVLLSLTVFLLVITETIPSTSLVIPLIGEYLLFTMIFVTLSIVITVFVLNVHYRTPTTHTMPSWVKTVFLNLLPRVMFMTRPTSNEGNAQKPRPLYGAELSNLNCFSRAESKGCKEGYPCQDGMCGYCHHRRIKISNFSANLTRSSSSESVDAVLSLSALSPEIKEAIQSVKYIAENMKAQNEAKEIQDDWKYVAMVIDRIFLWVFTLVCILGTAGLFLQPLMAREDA
Sequence of α3β4α5 nAChR (P30926 22-498): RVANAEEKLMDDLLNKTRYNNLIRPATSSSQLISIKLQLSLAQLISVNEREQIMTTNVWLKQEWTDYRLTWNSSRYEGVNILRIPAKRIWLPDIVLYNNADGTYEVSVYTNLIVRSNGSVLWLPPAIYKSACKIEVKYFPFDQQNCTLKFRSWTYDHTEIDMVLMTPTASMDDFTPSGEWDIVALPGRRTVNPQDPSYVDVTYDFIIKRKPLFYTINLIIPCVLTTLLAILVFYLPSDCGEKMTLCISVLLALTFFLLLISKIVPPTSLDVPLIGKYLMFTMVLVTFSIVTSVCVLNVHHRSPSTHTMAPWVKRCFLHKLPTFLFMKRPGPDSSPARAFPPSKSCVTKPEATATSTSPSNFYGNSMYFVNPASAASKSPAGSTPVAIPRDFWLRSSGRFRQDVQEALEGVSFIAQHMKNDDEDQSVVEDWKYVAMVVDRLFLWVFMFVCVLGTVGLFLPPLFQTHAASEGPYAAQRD
Sequence of α3β4α5 nAChR (P30532 23-468): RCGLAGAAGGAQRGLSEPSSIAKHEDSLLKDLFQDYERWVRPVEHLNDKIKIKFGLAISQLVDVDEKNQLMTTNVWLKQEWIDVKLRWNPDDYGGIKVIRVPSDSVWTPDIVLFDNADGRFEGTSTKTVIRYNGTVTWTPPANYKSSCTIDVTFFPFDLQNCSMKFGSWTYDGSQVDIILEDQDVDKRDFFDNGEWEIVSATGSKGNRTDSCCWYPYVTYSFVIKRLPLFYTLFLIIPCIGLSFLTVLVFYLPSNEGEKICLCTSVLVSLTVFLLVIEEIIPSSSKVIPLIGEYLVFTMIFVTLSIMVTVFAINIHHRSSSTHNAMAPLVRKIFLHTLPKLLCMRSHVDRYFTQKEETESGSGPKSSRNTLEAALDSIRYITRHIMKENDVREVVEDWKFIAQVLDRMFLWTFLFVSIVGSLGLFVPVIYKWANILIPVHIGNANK
Sequence of α3β4 nAChR (P32297 32-505): as the sequence (P32297 32-505) above
Sequence of α3β4 nAChR (P30926 22-498): as the sequence (P30926 22-498) above
Sequence of α4β2 nAChR (P43681 29-627 limits assumed): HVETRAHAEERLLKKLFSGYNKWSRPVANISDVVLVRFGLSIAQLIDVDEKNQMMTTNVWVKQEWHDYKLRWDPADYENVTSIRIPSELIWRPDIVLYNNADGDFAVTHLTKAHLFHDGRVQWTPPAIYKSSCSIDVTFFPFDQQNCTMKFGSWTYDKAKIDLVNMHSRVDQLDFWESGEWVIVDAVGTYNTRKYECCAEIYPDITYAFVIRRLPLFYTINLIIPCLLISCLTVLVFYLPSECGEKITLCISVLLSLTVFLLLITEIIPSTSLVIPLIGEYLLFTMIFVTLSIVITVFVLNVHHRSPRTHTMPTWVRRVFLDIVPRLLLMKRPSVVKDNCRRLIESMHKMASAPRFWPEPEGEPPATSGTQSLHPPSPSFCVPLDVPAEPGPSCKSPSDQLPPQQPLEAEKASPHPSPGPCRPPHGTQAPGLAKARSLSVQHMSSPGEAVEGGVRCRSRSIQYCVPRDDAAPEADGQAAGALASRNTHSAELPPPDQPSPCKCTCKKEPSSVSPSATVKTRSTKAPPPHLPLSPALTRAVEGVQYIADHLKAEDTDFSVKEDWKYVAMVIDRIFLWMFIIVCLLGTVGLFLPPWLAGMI
Sequence of α4β2 nAChR (P17787 26-502): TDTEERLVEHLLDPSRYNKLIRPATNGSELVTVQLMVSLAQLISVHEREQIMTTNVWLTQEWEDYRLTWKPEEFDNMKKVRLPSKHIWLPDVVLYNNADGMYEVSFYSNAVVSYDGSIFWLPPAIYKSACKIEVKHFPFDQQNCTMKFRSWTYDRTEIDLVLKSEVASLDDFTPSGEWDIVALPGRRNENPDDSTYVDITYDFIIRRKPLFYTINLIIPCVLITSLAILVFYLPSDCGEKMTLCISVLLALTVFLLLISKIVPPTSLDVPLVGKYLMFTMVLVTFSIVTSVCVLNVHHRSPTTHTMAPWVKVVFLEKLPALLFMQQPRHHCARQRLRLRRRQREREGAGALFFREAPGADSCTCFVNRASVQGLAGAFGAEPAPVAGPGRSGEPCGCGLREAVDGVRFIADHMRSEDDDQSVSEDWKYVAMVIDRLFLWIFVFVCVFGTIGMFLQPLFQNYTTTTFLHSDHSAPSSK

Turning to `NC1=NCC2c3ccccc3Cc3ccccc3N12` (stereo not shown) [epinastine], the IC50 in data set [1], in data set [2] and in data set [5] was at least 1 µM each time. The “efficiency of crossing the blood-brain barrier” value in data set [3] is on record as ~ 10%. The Cmax in data set [4] was about 100 nM.

With `N=C(N)c1ccc(OCCCCCOc2ccc(C(=N)N)cc2)cc1` [pentamidine], the plasma concentrations in data set [6] is ~ 1.8 µM. In data set [3], the “efficiency in crossing the blood-brain barrier” value is listed as ~ 0.04%.

One may read the IC50 as the concentration needed to halve the response being measured. High values mean a need for much substance, low ones inhibition by little substance. Usually Cmax stands for the highest concentration seen after dosing.
